Assay results from patent US10543223B2, “Mannose derivatives useful for treating pathologies associated with adherent E. coli” (ENTEROME, priority 2015, dated 2020).
Values joined by “and” are separate entries in the source; they are usually repeats but may differ in a detail not shown here. Identical values can stand only once. Like-named read-outs stand apart in the source and are kept apart here.

How the values were obtained:
LF82 = test: Hemagglutination inhibition assay, guinea pig erythrocytes, E. coli strain LF82; format: cell-based; details: Escherichia coli, read-out: MIC of haemagglutination
Experimental: (§1) Interaction of E. coli FimH adhesins with the glycocalyx of guinea pig erythrocytes forms a crosslinked network in the wells. Glycoconjugates, added in a 2-fold dilution series, prevent the agglutination reaction. The inhibition titer is defined as the lowest concentration of the glycoconjugate at which hemagglutination is still inhibited. Several strains of E. coli were grown statically overnight in LB at 37° C., washed three times in ice-cold phosphate-buffered saline, and redissolved. A 2-fold dilution of glycoconjugates with a starting concentration of 1 mM was prepared in 25 μL of PBS with 10% of DMSO. Importantly, the pipet tip was changed at every dilution step to avoid carry-over. Next, the bacterial solution (25 μL) was added to the 2-fold dilution series of the compound. Finally, 50 μL of guinea pig red blood cells, washed and diluted in the buffer to 5% of the blood volume, was added to reach 100 μL. The plates were left on ice for one night before read-out.
(§2) The anti-adhesive capacity of the inhibitors was evaluated against ten E. coli strains isolated from CD patients, urinary tract infections, and hip prosthesis infections.

[1] = Faeces concentrations and recovery after IV and PO administration to rats; format: in vivo, Sprague Dawley rats; details: 0-24 h; for dose excreted: Sprague Dawley, rat, faeces
Experimental: Plasma and faeces concentrations after administration of Compound 1b and for compound 13 of WO 2014/016361 at 1 mg/kg by intravenous route and 10 mg/kg by oral route to Sprague Dawley rats Blank rat faeces are homogenized with 3 volumes of UHQ water until obtention of a paste. Then 100 μL of the homogenate are spiked with the molecules and precipitated with 300 μL of acetonitrile. The concentration ranges tested are: • 0.5 ng/mL to 1000 ng/mL for plasma, • 4 to 2000 ng/g for faeces, corresponding to 1 to 500 ng/mL of faeces homogenate. 3. In-Life Part After administration, the animals are placed in individual metabolic cages in order to collect faeces samples during 24 hours. Faeces samples are collected over the 24 hours of the experiment. They are precisely weighed and 3 volumes of UHQ water are added. The mixture is homogeneized until obtention of a paste. Then 100 μL of the homogenate are taken and extracted with 300 μL of Acetonitrile. Analysis is performed using LC-MS/MS determination according to previous analytical test results.

[2] = test system: uropathogenic E. coli strain UTI89; test: Hemagglutination inhibition assay, guinea pig erythrocytes, E. coli strain UTI89; format: cell-based; details: Escherichia coli, read-out: MIC of haemagglutination
Experimental: as §1
Inhibition of E. coli Strain UTI89 Isolated from Patient with Urinary Tract Infection.
as §2

[3] = Plasma concentrations and pharmacokinetics after IV and PO administration to rats; format: in vivo, Sprague Dawley rats; details: for % AUCextra / AUC(0-inf) / AUC(0-t) / Cmax / Tmax: DMSO, based on mean data
Experimental: Plasma and faeces concentrations after administration of Compound 1b and for compound 13 of WO 2014/016361 at 1 mg/kg by intravenous route and 10 mg/kg by oral route to Sprague Dawley rats
At least 8 point calibration standards are run using standard conditions which consist to LC-MS/MS system with C18 column after precipitation of proteins with acetonitrile before the start of the analytical test.
For the plasma, 100 μL of blank rat plasma are directly spiked with the compounds before being precipitate with 300 μL of acetonitrile.
The concentration ranges tested are: • 0.5 ng/mL to 1000 ng/mL for plasma, • 4 to 2000 ng/g for faeces, corresponding to 1 to 500 ng/mL of faeces homogenate. 3. In-Life Part
12 male Sprague Dawley rats around 6-7 week old are used.
At prescribed times, blood is collected. Animals are briefly anaesthetised with Isoflurane® using an anaesthetic system (Équipement Vétérinaire Minerve) during blood samplings.
Blood samples are centrifuged at 2500 rpm at +4° C. (between 0 and 9° C.), the plasma is removed and placed into labelled polypropylene tubes. Individual plasma samples are stored frozen at −20° C. (target temperature) until analysis.
100 μL of the plasma sample are taken and 300 μL of acetonitrile are added. After protein precipitation, analysis is performed using LC-MS/MS determination according to previous analytical test results.
Concentrations of the samples are calculated directly from chromatograms after automatic integration by Analyst® 1.5.1 and expressed as ng/mL.
Mean plasma concentrations are calculated (when calculable, i.e. n≥2) using individual concentration and are expressed with the corresponding standard deviation value and variation coefficient (when calculable, i.e. n≥3), with
[formula] The individual plasma concentrations are tabulated for each rat and scheduled sampling time. Concentrations below the LLOQ are indicated by BLQ. All BLQ concentrations are substituted by zero for calculation of the descriptive statistics of the concentrations. 5. Results Estimation of pharmacokinetics parameters is performed using Kinetica® (Version 4.3—Thermo Electron Corporation—Philadelphia—USA). It was performed by using a one-compartment model approach, which considers the body as a single compartment in which the concentration is homogeneous. The following parameters are estimated: Cmax (ng/mL): maximal plasma concentration Tmax (h): first time to reach Cmax AUCt (ng/mL*h): area under the plasma concentration-time curve from administration up to the last quantifiable concentration at time t
[formula] “BLQ” stands for “Below the Limit of Quantification” ([…] for plasma). Compound 1b

[4] = IV 1 mg/kg, individual rats IV1-IV3, 1 mg/kg
[5] = PO 10 mg/kg, individual rats PO4-PO6, 10 mg/kg
[6] = male, Sprague Dawley, rat, plasma, IV 1 mg/kg
[7] = male, Sprague Dawley, rat, plasma, PO 10 mg/kg

## Cc1nc(-c2cnccn2)sc1C(=O)c1cnc(C[C@H]2O[C@H](CO)[C@@H](O)[C@H](O)[C@@H]2O)s1 [Compound 1b, 5-(4-methyl-2-(pyrazin-2-yl)thiazole-5-carbonyl) 2-((-α-D-mannopyranos-1-yl)methyl)thiazole]
LF82
  MIC: 0.024 µM
[1]; [4]
  Faeces concentration: 3557 ng/g and 6433 ng/g and 2274 ng/g
  Faeces concentration (homogenate): 889 ng/mL and 1608 ng/mL and 569 ng/mL
  Recovery in faeces: 9.2% and 6.8%
  Total amount of compound in faeces: 25318 ng and 22175 ng and 19840 ng
[1]; IV 1 mg/kg, mean of 3 rats
  Faeces concentration (homogenate), mean: 1022 ng/mL
  Faeces concentration, mean: 4088 ng/g
  Total amount of compound in faeces, mean: 22445 ng
[1]; [5]
  Faeces concentration: 146214 ng/g and 115495 ng/g and 146982 ng/g
  Faeces concentration (homogenate): 36553 ng/mL and 28874 ng/mL and 36745 ng/mL
  Recovery in faeces: 41.6% and 45.1%
  Total amount of compound in faeces: 1335427 ng and 1081683 ng and 1171915 ng
[1]; PO 10 mg/kg, mean of 3 rats
  Faeces concentration (homogenate), mean: 34058 ng/mL
  Faeces concentration, mean: 136230 ng/g
  Total amount of compound in faeces, mean: 1196341 ng
[1]; iv, 1 mg/kg, IV 1 mg/kg, individual rats IV1-IV3, read-out: Recovery in faeces
  dose excreted: 10.5%
[1]; iv, 1 mg/kg, IV 1 mg/kg, mean of 3 rats, read-out: Recovery in faeces, mean
  dose excreted: 8.9%
[1]; po, 10 mg/kg, PO 10 mg/kg, individual rats PO4-PO6, read-out: Recovery in faeces
  dose excreted: 55.6%
[1]; po, 10 mg/kg, PO 10 mg/kg, mean of 3 rats, read-out: Recovery in faeces, mean (quantity found in faeces out of the administered quantity)
  dose excreted: 47.4%
[2]
  MIC: 6 µM
[3]; IV 1 mg/kg, 0.083 h, individual rats IV1-IV3, 1 mg/kg
  Plasma concentration: 470.2 ng/mL and 908.7 ng/mL
[3]; IV 1 mg/kg, 0.5 h, individual rats IV1-IV3, 1 mg/kg
  Plasma concentration: 108.2 ng/mL and 66.5 ng/mL
[3]; IV 1 mg/kg, 2 h, individual rats IV1-IV3, 1 mg/kg
  Plasma concentration: BLQ
[3]; IV 1 mg/kg, 6 h, individual rats IV1-IV3
  Plasma concentration: BLQ
[3]; IV 1 mg/kg, 24 h, individual rats IV1-IV3
  Plasma concentration: BLQ
[3]; IV 1 mg/kg
  % AUCextra: 0.35%
[3]; PO 10 mg/kg, 0.5 h, individual rats PO4-PO6, 10 mg/kg
  Plasma concentration: 8.1 ng/mL and 6.5 ng/mL
[3]; PO 10 mg/kg, 1 h, individual rats PO4-PO6, 10 mg/kg
  Plasma concentration: 6.5 ng/mL and BLQ
[3]; PO 10 mg/kg, 2 h, individual rats PO4-PO6, 10 mg/kg
  Plasma concentration: BLQ and 5.2 ng/mL
[3]; PO 10 mg/kg, 6 h, individual rats PO4-PO6
  Plasma concentration: BLQ
[3]; PO 10 mg/kg, 24 h, individual rats PO4-PO6
  Plasma concentration: BLQ
[3]; PO 10 mg/kg
  % AUCextra: 53.8%
[3]; male, Sprague Dawley, rat, plasma, iv, 1 mg/kg, IV 1 mg/kg, 0.083 h, individual rats IV1-IV3, read-out: Plasma concentration
  concentration at 0.083 h: 573 ng/mL
[3]; male, Sprague Dawley, rat, plasma, iv, 1 mg/kg, IV 1 mg/kg, 0.083 h, mean of 3 rats (BLQ = 0), read-out: Plasma concentration, mean
  concentration at 0.083 h: 650 ng/mL
[3]; male, Sprague Dawley, rat, plasma, iv, 1 mg/kg, IV 1 mg/kg, 0.5 h, individual rats IV1-IV3, read-out: Plasma concentration
  concentration at 0.5 h: 59.6 ng/mL
[3]; male, Sprague Dawley, rat, plasma, iv, 1 mg/kg, IV 1 mg/kg, 0.5 h, mean of 3 rats (BLQ = 0), read-out: Plasma concentration, mean
  concentration at 0.5 h: 78.1 ng/mL
[3]; male, Sprague Dawley, rat, plasma, iv, 1 mg/kg, IV 1 mg/kg, 2 h, individual rats IV1-IV3, read-out: Plasma concentration
  concentration at 2 h: 7.7 ng/mL
[3]; male, Sprague Dawley, rat, plasma, iv, 1 mg/kg, IV 1 mg/kg, 2 h, mean of 3 rats (BLQ = 0), read-out: Plasma concentration, mean
  concentration at 2 h: 2.6 ng/mL
[3]; male, Sprague Dawley, rat, plasma, iv, 1 mg/kg, IV 1 mg/kg, 6 h, mean of 3 rats (BLQ = 0), read-out: Plasma concentration, mean
  concentration at 6 h: 0 ng/mL
[3]; male, Sprague Dawley, rat, plasma, iv, 1 mg/kg, IV 1 mg/kg, 24 h, mean of 3 rats (BLQ = 0)
  concentration at 24 h: 0 ng/mL
[3]; male, Sprague Dawley, rat, plasma, po, 10 mg/kg, PO 10 mg/kg, 0.5 h, individual rats PO4-PO6, read-out: Plasma concentration
  concentration at 0.5 h: 6.7 ng/mL
[3]; male, Sprague Dawley, rat, plasma, po, 10 mg/kg, PO 10 mg/kg, 0.5 h, mean of 3 rats (BLQ = 0), read-out: Plasma concentration, mean
  concentration at 0.5 h: 7.1 ng/mL
[3]; male, Sprague Dawley, rat, plasma, po, 10 mg/kg, PO 10 mg/kg, 1 h, individual rats PO4-PO6, read-out: Plasma concentration
  concentration at 1 h: 5.5 ng/mL
[3]; male, Sprague Dawley, rat, plasma, po, 10 mg/kg, PO 10 mg/kg, 1 h, mean of 3 rats (BLQ = 0), read-out: Plasma concentration, mean
  concentration at 1 h: 4 ng/mL
[3]; male, Sprague Dawley, rat, plasma, po, 10 mg/kg, PO 10 mg/kg, 2 h, individual rats PO4-PO6, read-out: Plasma concentration
  concentration at 2 h: 6 ng/mL
[3]; male, Sprague Dawley, rat, plasma, po, 10 mg/kg, PO 10 mg/kg, 2 h, mean of 3 rats (BLQ = 0), read-out: Plasma concentration, mean
  concentration at 2 h: 3.7 ng/mL
[3]; male, Sprague Dawley, rat, plasma, po, 10 mg/kg, PO 10 mg/kg, 6 h, mean of 3 rats (BLQ = 0), read-out: Plasma concentration, mean
  concentration at 6 h: 0 ng/mL
[3]; male, Sprague Dawley, rat, plasma, po, 10 mg/kg, PO 10 mg/kg, 24 h, mean of 3 rats (BLQ = 0)
  concentration at 24 h: 0 ng/mL
[3]; [6]
  AUC(0-inf): 267 ng·h/mL
  AUC(0-t): 266 ng·h/mL
  Cmax: 651 ng/mL
  Tmax: 4.8 min
[3]; male, Sprague Dawley, rat, plasma, PO 10 mg/kg vs IV 1 mg/kg, calculated based on AUCt, read-out: F (bioavailability)
  bioavailability: 0.3%
[3]; [7]
  AUC(0-t): 8 ng·h/mL
  Cmax: 7.07 ng/mL
  Tmax: 30 min
[3]; male, Sprague Dawley, rat, plasma, PO 10 mg/kg, % AUC extra >20%: value given for indication
  AUC(0-inf): 18.2 ng·h/mL
